Data: ChEMBL document CHEMBL1156829 (Proc Natl Acad Sci U S A, 2008)

Experiments:
Plasmodium falciparum [1] = assay: NOVARTIS: Inhibition of Plasmodium falciparum 3D7 (drug-susceptible) proliferation in erythrocyte-based infection assay; assay type: functional, organism-based; conditions: Plasmodium falciparum, 3D7
Plasmodium falciparum [2] = assay: NOVARTIS: Inhibition of Plasmodium falciparum W2 (drug-resistant) proliferation in erythrocyte-based infection assay; assay type: functional, organism-based; conditions: Plasmodium falciparum, W2; read-out: EC50
[3] = NOVARTIS: Cytotoxicity against human hepatocellular carcinoma cell line (Huh7); assay type: toxicity, cell-based, Huh-7; conditions: Huh7 cells (hepatocellular carcinoma cell line)

Row | Compound | EC50 (Plasmodium falciparum [1]) | EC50 (Plasmodium falciparum [2]) | CC50 [3]
1 | C[n+]1ccc(C=Cc2ccccc2F)c2ccccc21 | 57.6 nM | 78.1 nM | 81.9 µM
2 | S=C(NN=Cc1ccccn1)NC1CC2C=CC1C2 (centres undefined) | 38.5 nM | 44.8 nM | 44.3 µM
3 | CCOC(=O)c1ccc(N(C(=O)Cc2c[nH]c3ccccc23)C(C(=O)NC2CCCCC2)c2cccc(OC)c2OC)cc1 (centres undefined) | 54.2 nM | 104 nM | > 100 µM
4 | COc1cccc(NC(=O)Cn2c(C)c(C#N)c3ccccc32)c1 | 79.6 nM | 104 nM | > 100 µM
5 | N#Cc1ccc(-c2cnc(N)c(-c3ccc(C(N)=O)cc3)n2)cc1 | 60.3 nM | 99.8 nM | > 100 µM
6 | COc1cc(C2Nc3ccc4ccccc4c3C3=C2C(=O)CC(C)(C)C3)ccc1Oc1ccc([N+](=O)[O-])cc1C(F)(F)F (centres undefined) | 285 nM | 95.8 nM | > 100 µM
7 | COc1ccc(C2=C(Nc3ccc4oc5ccccc5c4c3)c3ccccc3C2=O)cc1 | 142 nM | 100 nM | > 100 µM
8 | COc1cccc(CN2CCN(C(c3ccccc3)c3ccccc3)CC2)c1O | 340 nM | 50.4 nM | 45.2 µM
9 | CN(C)c1ccc(C=Cc2nc(=O)c3ccccc3o2)cc1 | 95.9 nM | 96.1 nM | > 100 µM
10 | CC(=O)Nc1cc(C(=O)Nc2ccc(C3=NCCN3)cc2)ccc1C(=O)Nc1ccc(C2=NCCN2)cc1 | 323 nM | 103 nM | > 100 µM
11 | COc1ccccc1N1CCN(Cc2cc(C(C)C)c(C)cc2O)CC1 | 623 nM | 85 nM | 77.5 µM
12 | Cc1cc(Nc2ccc(Cl)c(Cl)c2)n2nc(C)nc2n1 | 123 nM | 112 nM | > 100 µM
13 | COc1ccc(Cn2c(C)nc3cc(NC(=O)Nc4ccccc4)c(C)nc32)cc1 | 373 nM | 110 nM | > 100 µM
14 | O=[N+]([O-])c1cccc(C(O)CNCc2ccc3c(c2)OCO3)c1 (centres undefined) | 1010 nM | 111 nM | > 100 µM
15 | O=C(Nc1ccc(F)c(Cl)c1)c1c2c(nc3ccccc13)CCN(Cc1ccccc1)C2 | 799 nM | 96.7 nM | > 100 µM
16 | COc1ccc(NC(=O)C2c3ccccc3C(=O)N(C3CCCC3)C2c2cccs2)cc1Cl (centres undefined) | 128 nM | 107 nM | > 100 µM
17 | CN1C(=O)N(C)C2(c3ccccc3)NN3C(=NC12c1ccccc1)SC1=C3C(=O)c2ccccc2C1=O (centres undefined) | 2830 nM | 95.5 nM | > 100 µM
18 | COC(=O)C1=C(C)NC2=C(C(=O)CC(c3ccccc3Cl)C2)C1c1ccc([N+](=O)[O-])cc1 (centres undefined) | 114 nM | 105 nM | > 100 µM
19 | CCCOC(=O)C1=C(C)NC2=C(C(=O)CC(c3ccccc3)C2)C1c1ccc(Cl)cc1Cl (centres undefined) | 484 nM | 109 nM | > 100 µM
20 | CCCC(=O)NC(C(=O)N1CCN(C(c2ccccc2)c2ccccc2)CC1)C(C)C (centres undefined) | 387 nM | 10.9 nM | > 10 µM
21 | COc1cc(C2CC(=O)NC3=C2C(=O)CC(c2ccccc2Cl)C3)ccc1O (centres undefined) | 815 nM | 109 nM | > 100 µM
22 | COC(=O)C1=C(C)NC2=C(C(=O)CC(c3ccc(Cl)cc3)C2)C1c1ccc(F)cc1 (centres undefined) | 188 nM | 98.2 nM | > 100 µM
23 | CCOC(=O)c1ccc(NCc2c(C)[nH]c(C(=O)OCC)c2C)cc1 | 238 nM | 97.7 nM | > 100 µM
24 | COCCNC(=O)c1ccc(OC2CCN(CC(c3ccccc3)c3ccccc3)CC2)c(OC)c1 | 303 nM | 74.9 nM | > 76.7 µM
25 | O=[N+]([O-])c1ccc(S(=O)(=O)N2CCN(C(=S)NCCc3ccccc3)CC2)cc1 | 97.2 nM | 97.1 nM | > 100 µM
26 | CCOC(=O)c1cccc(NC(=O)CC2C(=O)N(c3ccc(F)cc3)C(=O)N2CCC(C)C)c1 (centres undefined) | 202 nM | 101 nM | > 100 µM
27 | O=C(NCc1ccco1)c1ccc(OC2CCN(CC3CCCCC3)CC2)c(Cl)c1 | 95.1 nM | 23.6 nM | 23.5 µM

Row | Compound | EC50 (Plasmodium falciparum [1]) | EC50 (Plasmodium falciparum [2]) | CC50 [3]
28 | CC(C)(C)CC(C)(C)Nc1c(-c2ccccc2OC(=O)C2CCCCC2)nc2ccccn12 | 349 nM | 10.1 nM | > 10 µM
29 | O=[N+]([O-])c1ccc(S(=O)(=O)N2CCN(C(=S)NCC3CCCO3)CC2)cc1 (centres undefined) | 136 nM | 101 nM | > 100 µM
30 | CCOC(=O)c1cnc2ccccc2c1Nc1ccc(OC)c(OC)c1 | 66.5 nM | 84.6 nM | 85.4 µM
31 | Cc1ccn2c(NC(C)(C)CC(C)(C)C)c(-c3ccccc3OC(=O)c3cccc(Cl)c3)nc2c1 | 424 nM | 9.89 nM | > 10 µM
32 | Cc1ccc(CN2CCc3nc(N4CCCCC4)sc3C2)s1 | 14.1 nM | 10.5 nM | > 10 µM
33 | CC(=O)N(C1=C(N2CCCCC2)C(=O)c2ccccc2C1=O)c1ccc(F)cc1 | 155 nM | 34.5 nM | 33.3 µM
34 | O=[N+]([O-])c1cc(C(F)(F)F)ccc1N1CCCN(C(=S)Nc2ccccc2)CC1 | 87.8 nM | 102 nM | > 100 µM
35 | CCOC(=O)C1=C(C)NC2=C(C(=O)CC(c3ccc(OC)c(OC)c3)C2)C1c1ccc(Cl)c(Cl)c1 (centres undefined) | 229 nM | 105 nM | > 100 µM
36 | CN(CCCNc1ccnc2cc(Cl)ccc12)C(=O)c1cc(C(F)(F)F)cc(C(F)(F)F)c1 | 86.8 nM | < 10.4 nM | > 10 µM
37 | CCN1C(=O)N(CCC(C)C)C2(CCN(Cc3cc(Cl)ccc3O)CC2)C1=O | 348 nM | 102 nM | > 100 µM
38 | CC(C)(C)CC(C)(C)Nc1c(-c2ccccc2OC(=O)c2ccc(Cl)cc2Cl)nc2ccccn12 | 279 nM | 10.3 nM | > 10 µM
39 | CCOC(=O)C1=C(C)NC2=C(C(=O)C(C(=O)OCC)C(c3ccccc3OC)C2)C1c1ccc([N+](=O)[O-])cc1 (centres undefined) | 114 nM | 102 nM | > 100 µM
40 | COCCNC(=S)N1CCN(S(=O)(=O)c2ccc([N+](=O)[O-])cc2)CC1 | 176 nM | 101 nM | > 100 µM
41 | Oc1ccc(-c2ccccc2)cc1CNCCc1ccc(F)cc1 | 691 nM | < 9.74 nM | > 10 µM
42 | CC(=O)Nc1ccc(NC2=C(N3CCCCC3)C(=O)c3ccccc3C2=O)cc1 | 52.8 nM | 111 nM | > 100 µM
43 | O=C(Cc1cccs1)N1CCOc2c(cc(-c3csc4ccccc34)cc2OCCc2ccccn2)C1 | 179 nM | 106 nM | > 100 µM
44 | Nc1cc(C(=O)Nc2cccc(C3=NCCN3)c2)ccc1C(=O)Nc1cccc(C2=NCCN2)c1 | 199 nM | 110 nM | > 100 µM
45 | O=C1C2=C(Nc3ccccc3SC2c2ccc(OCc3ccccc3)cc2)c2ccccc21 (centres undefined) | 479 nM | 103 nM | > 100 µM
46 | Cc1cccc2cc(CNC3CCOC(C)(C)C3)c(N3CCCC3)nc12 (centres undefined) | 21.4 nM | 39.7 nM | 39.1 µM
47 | Cc1ccn2c(NC(C)(C)CC(C)(C)C)c(-c3ccccc3OC(=O)CCC3CCCC3)nc2c1 | 1100 nM | < 10.2 nM | > 10 µM
48 | COc1ccc(C(OCCS(=O)(=O)CCO)(c2ccccc2)c2ccc(OC)cc2)cc1 | 70.3 nM | 48.9 nM | 51.6 µM
49 | CCOc1ccccc1C1C(C#N)=C(SCC(=O)Nc2ccc(Cl)cc2)NC(C)=C1C(=O)Nc1ccccc1 (centres undefined) | 352 nM | 107 nM | > 100 µM
50 | CCN1C(=S)NC2c3cc(C)ccc3OC13CCCC23 (centres undefined) | 164 nM | 111 nM | > 100 µM
51 | N#Cc1ccc(NC(=O)CCCC(=O)O)cc1 | 2080 nM | < 10.6 nM | > 10 µM
52 | Cc1cc(-c2ccc(O)c(CN3CCCCC3CO)c2)c2ccccc2n1 (centres undefined) | 361 nM | 57.7 nM | 59.1 µM
53 | CCCCOc1ccc(NC2=C(N3CCCCC3)C(=O)c3ccccc3C2=O)cc1 | 9.86 nM | 17.2 nM | 15.5 µM
